Measurements published in ChEMBL document CHEMBL1909046, “DrugMatrix in vitro pharmacology data”.

Legend:
[1] = DRUGMATRIX: Sodium/nucleoside co-transporter radioligand binding (ligand: nitrobenzylthioinosine); type: cell membranes, Cavia porcellus, Dunkin-Hartley, Cerebral cortex, Membrane; settings: Not Active = under 50% inhibition at 10 µM
[2] = target: Beta-3 adrenergic receptor (Homo sapiens, UniProt P13945); assay: DRUGMATRIX: Adrenergic beta3 radioligand binding (ligand: [125I] Cyanopindolol); type: cell membranes, Membrane; settings: hek293; Not Active = under 50% inhibition at 10 µM
[3] = DRUGMATRIX: ATPase, Na+/K+ enzyme inhibition (substrate: ATP); type: tissue-based, Sus scrofa, Heart; settings: Not Active = under 50% inhibition at 10 µM
[4] = target: Vascular endothelial growth factor receptor 1 (Homo sapiens, UniProt P17948); type: cell-based; settings: huvec; further: in other assays of this panel Not Active means under 50% inhibition at 10 µM
[5] = target: T1, Amine oxidase [flavin-containing] A (Homo sapiens, UniProt P21397); assay: DRUGMATRIX: Monoamine Oxidase MAO-A enzyme inhibition (substrate: Kynuramine); set-up: species or system BTI-TN-5B1-4; settings: Not Active = under 50% inhibition at 10 µM
T1 sequence (P21397 whole entry): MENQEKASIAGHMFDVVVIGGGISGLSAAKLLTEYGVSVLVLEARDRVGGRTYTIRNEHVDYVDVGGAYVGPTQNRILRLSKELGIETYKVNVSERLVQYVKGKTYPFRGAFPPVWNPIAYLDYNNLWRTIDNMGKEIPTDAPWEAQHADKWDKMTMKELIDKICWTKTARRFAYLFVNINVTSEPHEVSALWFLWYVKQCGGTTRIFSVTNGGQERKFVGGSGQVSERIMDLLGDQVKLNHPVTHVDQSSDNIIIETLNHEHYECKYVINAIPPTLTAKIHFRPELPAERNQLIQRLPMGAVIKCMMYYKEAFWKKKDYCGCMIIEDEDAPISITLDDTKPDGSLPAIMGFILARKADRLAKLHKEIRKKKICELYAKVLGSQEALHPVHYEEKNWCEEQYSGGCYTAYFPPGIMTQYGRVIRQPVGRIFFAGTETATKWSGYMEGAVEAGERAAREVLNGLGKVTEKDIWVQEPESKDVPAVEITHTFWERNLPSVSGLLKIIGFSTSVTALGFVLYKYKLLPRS

[6] = target: T2, Muscarinic acetylcholine receptor M2 (Homo sapiens, UniProt P08172); type: cell membranes, CHO-K1, Membrane; settings: cho-k1; further: in other assays of this panel Not Active means under 50% inhibition at 10 µM
T2 sequence (P08172 whole entry): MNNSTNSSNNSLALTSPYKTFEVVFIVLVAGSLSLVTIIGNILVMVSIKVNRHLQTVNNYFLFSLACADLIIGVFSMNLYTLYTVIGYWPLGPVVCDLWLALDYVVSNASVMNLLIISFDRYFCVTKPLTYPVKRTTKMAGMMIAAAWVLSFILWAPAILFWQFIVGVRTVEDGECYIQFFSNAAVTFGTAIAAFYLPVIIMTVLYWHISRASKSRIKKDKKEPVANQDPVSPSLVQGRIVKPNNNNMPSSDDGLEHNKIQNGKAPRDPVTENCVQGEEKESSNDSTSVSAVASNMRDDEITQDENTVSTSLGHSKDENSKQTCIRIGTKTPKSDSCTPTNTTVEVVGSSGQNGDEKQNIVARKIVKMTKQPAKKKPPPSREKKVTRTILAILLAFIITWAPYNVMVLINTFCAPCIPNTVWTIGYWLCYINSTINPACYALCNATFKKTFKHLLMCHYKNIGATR

[7] = target: Delta-type opioid receptor (Homo sapiens, UniProt P41143); type: cell membranes, HEK293, Membrane; settings: hek293; further: in other assays of this panel Not Active means under 50% inhibition at 10 µM
[8] = DRUGMATRIX: Phosphodiesterase PDE3 enzyme inhibition (substrate: [3H]cAMP + cAMP); type: tissue-based, Homo sapiens; settings: platelet; Not Active = under 50% inhibition at 10 µM

Delta-type opioid receptor, sequence (P41143 whole entry): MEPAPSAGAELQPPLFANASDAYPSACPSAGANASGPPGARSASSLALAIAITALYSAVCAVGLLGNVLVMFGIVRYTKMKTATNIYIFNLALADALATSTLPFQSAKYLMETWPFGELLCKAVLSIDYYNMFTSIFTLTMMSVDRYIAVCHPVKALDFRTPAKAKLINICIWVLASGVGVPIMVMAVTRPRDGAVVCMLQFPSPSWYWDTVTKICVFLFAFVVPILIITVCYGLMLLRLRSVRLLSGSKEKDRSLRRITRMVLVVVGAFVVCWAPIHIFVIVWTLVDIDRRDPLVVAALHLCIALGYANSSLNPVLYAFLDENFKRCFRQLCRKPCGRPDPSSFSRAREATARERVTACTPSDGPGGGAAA
Beta-3 adrenergic receptor, sequence (P13945 whole entry): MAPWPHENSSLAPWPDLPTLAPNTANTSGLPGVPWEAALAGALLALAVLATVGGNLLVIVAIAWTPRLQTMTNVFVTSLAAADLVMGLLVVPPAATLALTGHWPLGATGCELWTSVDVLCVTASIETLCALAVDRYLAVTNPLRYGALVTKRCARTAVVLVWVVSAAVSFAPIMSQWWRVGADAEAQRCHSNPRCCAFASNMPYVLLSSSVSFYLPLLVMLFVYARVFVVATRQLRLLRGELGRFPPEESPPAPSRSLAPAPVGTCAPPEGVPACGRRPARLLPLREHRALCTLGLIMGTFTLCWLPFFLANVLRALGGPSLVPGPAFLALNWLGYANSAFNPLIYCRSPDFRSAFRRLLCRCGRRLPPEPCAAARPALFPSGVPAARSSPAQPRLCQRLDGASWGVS
Vascular endothelial growth factor receptor 1, sequence (P17948 whole entry): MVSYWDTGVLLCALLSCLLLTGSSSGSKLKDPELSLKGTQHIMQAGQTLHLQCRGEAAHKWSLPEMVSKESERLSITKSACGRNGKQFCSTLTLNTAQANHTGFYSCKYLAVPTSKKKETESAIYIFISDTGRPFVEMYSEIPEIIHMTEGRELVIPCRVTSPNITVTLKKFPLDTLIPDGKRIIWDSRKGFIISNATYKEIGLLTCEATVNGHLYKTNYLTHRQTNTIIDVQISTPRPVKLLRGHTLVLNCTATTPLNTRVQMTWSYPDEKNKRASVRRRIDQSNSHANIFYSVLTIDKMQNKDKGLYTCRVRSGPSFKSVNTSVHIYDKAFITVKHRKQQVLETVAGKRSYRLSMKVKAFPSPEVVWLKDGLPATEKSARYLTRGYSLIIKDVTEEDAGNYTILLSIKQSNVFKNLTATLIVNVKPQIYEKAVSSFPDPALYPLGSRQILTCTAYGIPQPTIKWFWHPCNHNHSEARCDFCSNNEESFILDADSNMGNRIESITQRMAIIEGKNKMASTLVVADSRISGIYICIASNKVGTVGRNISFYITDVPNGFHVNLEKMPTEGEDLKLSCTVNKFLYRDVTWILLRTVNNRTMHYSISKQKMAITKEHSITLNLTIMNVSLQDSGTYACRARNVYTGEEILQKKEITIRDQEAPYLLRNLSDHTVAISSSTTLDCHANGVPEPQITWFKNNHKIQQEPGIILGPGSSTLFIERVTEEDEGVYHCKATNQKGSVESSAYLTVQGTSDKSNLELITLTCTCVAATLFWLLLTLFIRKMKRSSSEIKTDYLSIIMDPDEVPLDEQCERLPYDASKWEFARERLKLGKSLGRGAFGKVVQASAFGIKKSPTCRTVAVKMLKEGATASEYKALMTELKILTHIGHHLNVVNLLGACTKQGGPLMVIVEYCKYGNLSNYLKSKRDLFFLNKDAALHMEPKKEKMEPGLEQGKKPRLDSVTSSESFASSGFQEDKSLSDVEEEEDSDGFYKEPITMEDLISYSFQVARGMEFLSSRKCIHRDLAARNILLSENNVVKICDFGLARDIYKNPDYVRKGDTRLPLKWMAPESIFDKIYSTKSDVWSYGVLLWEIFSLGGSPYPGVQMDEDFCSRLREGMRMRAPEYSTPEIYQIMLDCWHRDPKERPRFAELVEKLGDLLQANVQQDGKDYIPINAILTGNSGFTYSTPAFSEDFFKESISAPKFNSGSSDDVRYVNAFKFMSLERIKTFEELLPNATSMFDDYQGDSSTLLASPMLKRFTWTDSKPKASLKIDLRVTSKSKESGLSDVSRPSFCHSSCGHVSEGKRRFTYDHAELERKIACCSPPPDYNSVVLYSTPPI

## CC(C)(Oc1ccc(C2CCCc3ccccc32)cc1)C(=O)O (stereo not drawn) [NAFENOPIN]
[1]
  IC50: Not Active
  Ki: Not Active
[2]
  IC50: Not Active
[3]
  IC50: Not Active
  Ki: Not Active
[4]
  IC50: Not Active
[5]; bti-tn-5b1-4
  IC50: Not Active
[6]
  IC50: Not Active
[7]
  IC50: Not Active
[8]
  IC50: Not Active
  Ki: Not Active

## CC(C)[C@H]1CC[C@H](C(=O)N[C@H](Cc2ccccc2)C(=O)O)CC1 [NATEGLINIDE]
[1]
  IC50: Not Active
  Ki: Not Active
[2]
  IC50: Not Active
[3]
  IC50: Not Active
  Ki: Not Active
[4]
  IC50: Not Active
[5]; bti-tn-5b1-4
  IC50: Not Active
[6]
  IC50: Not Active
[7]
  IC50: Not Active
[8]
  IC50: Not Active
  Ki: Not Active

## CCN[C@@H]1C[C@H](N)[C@@H](O[C@H]2OC(CN)=CC[C@H]2N)[C@H](O)[C@H]1O[C@H]1OC[C@](C)(O)[C@H](NC)[C@H]1O [NETILMICIN]
[1]
  IC50: Not Active
  Ki: Not Active
[2]
  IC50: Not Active
[3]
  IC50: Not Active
  Ki: Not Active
[4]
  IC50: Not Active
[5]; bti-tn-5b1-4
  IC50: Not Active
[6]
  IC50: Not Active
[7]
  IC50: Not Active
[8]
  IC50: Not Active
  Ki: Not Active

## COC(=O)C1=C(C)NC(C)=C(C(=O)OCC(C)C)C1c1ccccc1[N+](=O)[O-] (stereo not drawn) [NISOLDIPINE]
[1]
  IC50: Not Active
  Ki: Not Active
[2]
  IC50: Not Active
[3]
  IC50: Not Active
  Ki: Not Active
[4]
  IC50: Not Active
[5]; bti-tn-5b1-4
  IC50: Not Active
[6]
  IC50: Not Active
[7]
  IC50: Not Active
[8]
  IC50: Not Active
  Ki: Not Active

## CCOC(=O)C1=C(C)NC(C)=C(C(=O)OC)C1c1cccc([N+](=O)[O-])c1 (stereo not drawn) [NITRENDIPINE]
[1]
  IC50: Not Active
  Ki: Not Active
[2]
  IC50: Not Active
[3]
  IC50: Not Active
  Ki: Not Active
[4]
  IC50: Not Active
[5]; bti-tn-5b1-4
  IC50: Not Active
[6]
  IC50: Not Active
[7]
  IC50: Not Active
[8]
  IC50: Not Active
  Ki: Not Active

## C#C[C@]1(OC(C)=O)CC[C@H]2[C@@H]3CCC4=CC(=O)CC[C@@H]4[C@H]3CC[C@@]21C [NORETHINDRONE ACETATE]
[1]
  IC50: Not Active
  Ki: Not Active
[2]
  IC50: Not Active
[3]
  IC50: Not Active
  Ki: Not Active
[4]
  IC50: Not Active
[5]; bti-tn-5b1-4
  IC50: Not Active
[6]
  IC50: Not Active
[7]
  IC50: Not Active
[8]
  IC50: Not Active
  Ki: Not Active

## COc1ccc2[nH]c([S+]([O-])Cc3ncc(C)c(OC)c3C)nc2c1 (stereo not drawn) [OMEPRAZOLE]
[1]
  IC50: Not Active
  Ki: Not Active
[2]
  IC50: Not Active
[3]
  IC50: Not Active
  Ki: Not Active
[4]
  IC50: Not Active
[5]; bti-tn-5b1-4
  IC50: Not Active
[6]
  IC50: Not Active
[7]
  IC50: Not Active
[8]
  IC50: Not Active
  Ki: Not Active

## Cc1nccn1CC1CCc2c(c3ccccc3n2C)C1=O (stereo not drawn) [ONDANSETRON]
[1]
  IC50: Not Active
  Ki: Not Active
[2]
  IC50: Not Active
[3]
  IC50: Not Active
  Ki: Not Active
[4]
  IC50: Not Active
[5]; bti-tn-5b1-4
  IC50: Not Active
[6]
  IC50: Not Active
[7]
  IC50: Not Active
[8]
  IC50: Not Active
  Ki: Not Active

## CCn1cc(C(=O)O)c(=O)c2cc(F)c(N3CCN(C)CC3)cc21 [PEFLOXACIN]
[1]
  IC50: Not Active
  Ki: Not Active
[2]
  IC50: Not Active
[3]
  IC50: Not Active
  Ki: Not Active
[4]
  IC50: Not Active
[5]; bti-tn-5b1-4
  IC50: Not Active
[6]
  IC50: Not Active
[7]
  IC50: Not Active
[8]
  IC50: Not Active
  Ki: Not Active

## CCCCOc1ccc(OCCCN2CCOCC2)cc1 [PRAMOXINE]
[1]
  IC50: Not Active
  Ki: Not Active
[2]
  IC50: Not Active
[3]
  IC50: Not Active
  Ki: Not Active
[4]
  IC50: Not Active
[5]; bti-tn-5b1-4
  IC50: Not Active
[6]
  IC50: Not Active
[7]
  IC50: Not Active
[8]
  IC50: Not Active
  Ki: Not Active

## O=C(C1CCCCC1)N1CC(=O)N2CCc3ccccc3C2C1 (stereo not drawn) [PRAZIQUANTEL]
[1]
  IC50: Not Active
  Ki: Not Active
[2]
  IC50: Not Active
[3]
  IC50: Not Active
  Ki: Not Active
[4]
  IC50: Not Active
[5]; bti-tn-5b1-4
  IC50: Not Active
[6]
  IC50: Not Active
[7]
  IC50: Not Active
[8]
  IC50: Not Active
  Ki: Not Active

## CCN(CC)CCOC(=O)c1ccc(N)cc1 [PROCAINE]
[1]
  IC50: Not Active
  Ki: Not Active
[2]
  IC50: Not Active
[3]
  IC50: Not Active
  Ki: Not Active
[4]
  IC50: Not Active
[5]; bti-tn-5b1-4
  IC50: Not Active
[6]
  IC50: Not Active
[7]
  IC50: Not Active
[8]
  IC50: Not Active
  Ki: Not Active

## CCCN(CCC)C(=O)C(CCC(=O)O)NC(=O)c1ccccc1 (stereo not drawn) [PROGLUMIDE]
[1]
  IC50: Not Active
  Ki: Not Active
[2]
  IC50: Not Active
[3]
  IC50: Not Active
  Ki: Not Active
[4]
  IC50: Not Active
[5]; bti-tn-5b1-4
  IC50: Not Active
[6]
  IC50: Not Active
[7]
  IC50: Not Active
[8]
  IC50: Not Active
  Ki: Not Active

## NC(=O)c1cnccn1 [PYRAZINAMIDE]
[1]
  IC50: Not Active
  Ki: Not Active
[2]
  IC50: Not Active
[3]
  IC50: Not Active
  Ki: Not Active
[4]
  IC50: Not Active
[5]; bti-tn-5b1-4
  IC50: Not Active
[6]
  IC50: Not Active
[7]
  IC50: Not Active
[8]
  IC50: Not Active
  Ki: Not Active

## Cc1cc2cc3c(C)cc(=O)oc3c(C)c2o1 [TRIOXSALEN]
[1]
  IC50: Not Active
  Ki: Not Active
[2]
  IC50: Not Active
[3]
  IC50: Not Active
  Ki: Not Active
[4]
  IC50: Not Active
[5]; read-out: IC50
  IC50: 831 nM
[6]
  IC50: Not Active
[7]
  IC50: Not Active
[8]
  IC50: Not Active
  Ki: Not Active

## CCCC(CCC)C(=O)O [VALPROIC ACID]
[1]
  IC50: Not Active
  Ki: Not Active
[2]
  IC50: Not Active
[3]
  IC50: Not Active
  Ki: Not Active
[4]
  IC50: Not Active
[5]; bti-tn-5b1-4
  IC50: Not Active
[6]
  IC50: Not Active
[7]
  IC50: Not Active
[8]
  IC50: Not Active
  Ki: Not Active

## CCC1=C[C@@H]2CN(C1)Cc1c([nH]c3ccccc13)[C@@](C(=O)OC)(c1cc3c(cc1OC)N(C)[C@H]1[C@@](O)(C(=O)OC)[C@H](OC(C)=O)[C@]4(CC)C=CCN5CC[C@]31[C@@H]54)C2 [VINORELBINE]
[1]
  IC50: Not Active
  Ki: Not Active
[2]
  IC50: Not Active
[3]
  IC50: Not Active
  Ki: Not Active
[4]
  IC50: Not Active
[5]; bti-tn-5b1-4
  IC50: Not Active
[6]
  IC50: Not Active
[7]
  IC50: Not Active
[8]
  IC50: Not Active
  Ki: Not Active

## CADMIUM DICHLORIDE
[1]
  IC50: Not Active
  Ki: Not Active
[2]
  IC50: Not Active
  Ki: Not Active
[3]
  IC50: Not Active
  Ki: Not Active
[4]
  IC50: Not Active
  Ki: Not Active
[5]; bti-tn-5b1-4
  IC50: Not Active
  Ki: Not Active
[6]
  IC50: Not Active
  Ki: Not Active
[7]
  IC50: Not Active
  Ki: Not Active
[8]
  IC50: Not Active
  Ki: Not Active
